Source: the supplement of paper PMC10307832

Assays:
Experiment in all cases: relative viability (nuclei count vs DMSO), 5 days (fraction); higher = more cells survive
[1] = system: BEN
Procedure, shortened: (§1)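 Medians of duplicate plates are given as relative viability. That measure is the nuclei count in treated wells divided by the count in vehicle wells. Counts were taken on 4× images of lung cancer cell lines in 1536-well plates, 5 days after pin-tool dosing the day after seeding with one drug alone or a fixed anchor-drug dose plus five library-drug doses (not always all listed) in √10 steps.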

[2] = system: CAL-12T
Procedure, shortened: as §1

[3] = system: COR-L23
Procedure, shortened: as §1

[4] = system: HCC-44
Procedure, shortened: as §1

[5] = system: LU99A
Procedure, shortened: as §1

[6] = system: LXF-289
Procedure, shortened: as §1

[7] = system: NCI-H1355
Procedure, shortened: as §1

[8] = system: NCI-H1437
Procedure, shortened: as §1

[9] = system: NCI-H1650
Procedure, shortened: as §1

[10] = system: NCI-H1651
Procedure, shortened: as §1

[11] = system: NCI-H1666
Procedure, shortened: as §1

[12] = system: NCI-H1755
Procedure, shortened: as §1

[13] = system: NCI-H1993
Procedure, shortened: as §1

[14] = system: NCI-H2085
Procedure, shortened: as §1

[15] = system: NCI-H2087
Procedure, shortened: as §1

[16] = system: NCI-H2170
Procedure, shortened: as §1

[17] = system: NCI-H460
Procedure, shortened: as §1

[18] = system: NCI-H520
Procedure, shortened: as §1

[19] = system: PC-14
Procedure, shortened: as §1

[20] = system: SK-MES-1
Procedure, shortened: as §1

CCNC(=O)c1noc(-c2cc(C(C)C)c(O)cc2O)c1-c1ccc(CN2CCOCC2)cc1 [Luminespib] + O=C(CCCCCCC(=O)Nc1ccccc1)NO [Vorinostat] (partner 1 µM)
relative viability ([1]; first compound 0.002 µM): 0.608
relative viability ([1]; first compound 0.006325 µM): 0.546
relative viability ([1]; first compound 0.02 µM): 0.358
relative viability ([1]; first compound 0.06325 µM): 0.525
relative viability ([1]; first compound 0.2 µM): 0.36
relative viability ([2]; first compound 0.002 µM): 0.725
relative viability ([2]; first compound 0.006325 µM): 0.802
relative viability ([2]; first compound 0.02 µM): 0.29
relative viability ([2]; first compound 0.06325 µM): 0.101
relative viability ([2]; first compound 0.2 µM): 0.118
relative viability ([3]; first compound 0.002 µM): 0.469
relative viability ([3]; first compound 0.006325 µM): 0.364
relative viability ([3]; first compound 0.02 µM): 0.396
relative viability ([3]; first compound 0.06325 µM): 0.0788
relative viability ([3]; first compound 0.2 µM): 0.0814
relative viability ([4]; first compound 0.002 µM): 1.1
relative viability ([4]; first compound 0.006325 µM): 1.13
relative viability ([4]; first compound 0.02 µM): 1.19
relative viability ([4]; first compound 0.06325 µM): 1.11
relative viability ([4]; first compound 0.2 µM): 0.924
relative viability ([5]; first compound 0.002 µM): 0.58
relative viability ([5]; first compound 0.006325 µM): 0.45
relative viability ([5]; first compound 0.02 µM): 0.263
relative viability ([5]; first compound 0.06325 µM): 0.201
relative viability ([5]; first compound 0.2 µM): 0.103
relative viability ([6]; first compound 0.002 µM): 0.69
relative viability ([6]; first compound 0.006325 µM): 0.707
relative viability ([6]; first compound 0.02 µM): 1
relative viability ([6]; first compound 0.06325 µM): 0.518
relative viability ([6]; first compound 0.2 µM): 0.147
relative viability ([7]; first compound 0.002 µM): 0.581
relative viability ([7]; first compound 0.006325 µM): 0.641
relative viability ([7]; first compound 0.02 µM): 0.38
relative viability ([7]; first compound 0.06325 µM): 0.398
relative viability ([7]; first compound 0.2 µM): 0.12
relative viability ([8]; first compound 0.002 µM): 0.92
relative viability ([8]; first compound 0.006325 µM): 0.828
relative viability ([8]; first compound 0.02 µM): 0.82
relative viability ([8]; first compound 0.06325 µM): 0.601
relative viability ([8]; first compound 0.2 µM): 0.218
relative viability ([9]; first compound 0.002 µM): 0.478
relative viability ([9]; first compound 0.006325 µM): 0.516
relative viability ([9]; first compound 0.02 µM): 0.388
relative viability ([9]; first compound 0.06325 µM): 0.139
relative viability ([9]; first compound 0.2 µM): 0.135
relative viability ([10]; first compound 0.002 µM): 0.516
relative viability ([10]; first compound 0.006325 µM): 0.481
relative viability ([10]; first compound 0.02 µM): 0.371
relative viability ([10]; first compound 0.06325 µM): 0.542
relative viability ([10]; first compound 0.2 µM): 0.505
relative viability ([11]; first compound 0.002 µM): 0.983
relative viability ([11]; first compound 0.006325 µM): 0.994
relative viability ([11]; first compound 0.02 µM): 1.19
relative viability ([11]; first compound 0.06325 µM): 1.03
relative viability ([11]; first compound 0.2 µM): 0.909
relative viability ([12]; first compound 0.002 µM): 0.751
relative viability ([12]; first compound 0.006325 µM): 0.774
relative viability ([12]; first compound 0.02 µM): 0.835
relative viability ([12]; first compound 0.06325 µM): 0.57
relative viability ([12]; first compound 0.2 µM): 0.319
relative viability ([13]; first compound 0.002 µM): 0.893
relative viability ([13]; first compound 0.006325 µM): 0.793
relative viability ([13]; first compound 0.02 µM): 0.552
relative viability ([13]; first compound 0.06325 µM): 0.246
relative viability ([13]; first compound 0.2 µM): 0.238
relative viability ([14]; first compound 0.002 µM): 0.797
relative viability ([14]; first compound 0.006325 µM): 0.717
relative viability ([14]; first compound 0.02 µM): 0.553
relative viability ([14]; first compound 0.06325 µM): 0.367
relative viability ([14]; first compound 0.2 µM): 0.31
relative viability ([15]; first compound 0.002 µM): 0.667
relative viability ([15]; first compound 0.006325 µM): 0.609
relative viability ([15]; first compound 0.02 µM): 0.656
relative viability ([15]; first compound 0.06325 µM): 0.111
relative viability ([15]; first compound 0.2 µM): 0.122
relative viability ([16]; first compound 0.002 µM): 0.746
relative viability ([16]; first compound 0.006325 µM): 0.698
relative viability ([16]; first compound 0.06325 µM): 0.572
relative viability ([16]; first compound 0.2 µM): 0.135
relative viability ([17]; first compound 0.002 µM): 0.775
relative viability ([17]; first compound 0.006325 µM): 0.68
relative viability ([17]; first compound 0.02 µM): 0.237
relative viability ([17]; first compound 0.06325 µM): 0.0162
relative viability ([17]; first compound 0.2 µM): 0.0131
relative viability ([18]; first compound 0.002 µM): 0.748
relative viability ([18]; first compound 0.006325 µM): 0.747
relative viability ([18]; first compound 0.02 µM): 0.624
relative viability ([18]; first compound 0.06325 µM): 0.197
relative viability ([18]; first compound 0.2 µM): 0.166
relative viability ([19]; first compound 0.002 µM): 0.787
relative viability ([19]; first compound 0.006325 µM): 0.639
relative viability ([19]; first compound 0.02 µM): 0.121
relative viability ([19]; first compound 0.06325 µM): 0.0465
relative viability ([19]; first compound 0.2 µM): 0.0692
relative viability ([20]; first compound 0.002 µM): 1.14
relative viability ([20]; first compound 0.006325 µM): 0.931
relative viability ([20]; first compound 0.02 µM): 1.04
relative viability ([20]; first compound 0.06325 µM): 0.174
relative viability ([20]; first compound 0.2 µM): 0.153
